Experiments:
JAK2 = target: T1, JAK2 (Homo sapiens, UniProt O60674); assay: Kinobeads assay, JAK2 (competition binding in cell lysate, dot blot detection); conditions: mixed Molt4/Ramos lysate
T1 construct: endogenous in cells; host or cells: Molt4 (ATCC CRL-1582) and Ramos (ATCC CRL-1596) cell lysate; mixed Molt4/Ramos lysate 1:2
Description: (§1) The compounds of the present invention as described in the previous examples were tested in a Kinobeads™ assay as described for ZAP-70 (WO-A 2007/137867). Briefly, test compounds (at various concentrations) and the affinity matrix with the immobilized aminopyrido-pyrimidine ligand 24 were added to cell lysate aliquots and allowed to bind to the proteins in the lysate sample. After the incubation time the beads with captured proteins were separated from the lysate. Bound proteins were then eluted and the presence of JAK2 and JAK3 was detected and quantified using specific antibodies in a dot blot procedure and the Odyssey infrared detection system. Dose response curves for individual kinases were generated and IC50 values calculated. Kinobeads™ assays for ZAP-70 (WO-A 2007/137867) and for kinase selectivity profiling (WO-A 2006/134056) have been previously described.
(§2) 5×DP buffer: 250 mM Tris-HCl pH 7.4, 25% Glycerol, 7.5 mM MgCl2, 750 mM NaCl, 5 mM Na3VO4; filter the 5×DP buffer through a 0.22 μm filter and store in aliquots at −80° C. The 5×DP buffer is diluted with H2O to 1×DP buffer containing 1 mM DTT and 25 mM NaF.
(§3) Stock solutions of test compounds were prepared in DMSO. In a 96 well plate 30 μL solution of diluted test compounds at 5 mM in DMSO were prepared. Starting with this solution a 1:3 dilution series (9 steps) was prepared. For control experiments (no test compound) a buffer containing 2% DMSO was used.
(§4) Molt4 cells (ATCC catalogue number CRL-1582) and Ramos cells (ATCC catalogue number CRL-1596) were grown in 1 L Spinner flasks (Integra Biosciences, #182101) in suspension in RPMI 1640 medium (Invitrogen, #21875-034) supplemented with 10% Fetal Bovine Serum (Invitrogen) at a density between 0.15×10^6 and 1.2×10^6 cells/mL. Cells were harvested by centrifugation, washed once with 1×PBS buffer (Invitrogen, #14190-094) and cell pellets were frozen in liquid nitrogen and subsequently stored at −80° C. Cells were homogenized in a Potter S homogenizer in lysis buffer: 50 mM Tris-HCl, 0.8% NP40, 5% glycerol, 150 mM NaCl, 1.5 mM MgCl2, 25 mM NaF, 1 mM sodium vanadate, 1 mM DTT, pH 7.5. One complete EDTA-free tablet (protease inhibitor cocktail, Roche Diagnostics, 1873580) per 25 mL buffer was added. The material was dounced 10 times using a mechanized POTTER S, transferred to 50 mL falcon tubes, incubated for 30 minutes on ice and spun down for 10 minutes at 20,000 g at 4° C. (10,000 rpm in Sorvall SLA600, precooled). The supernatant was transferred to an ultracentrifuge (UZ)-polycarbonate tube (Beckmann, 355654) and spun for 1 hour at 100.000 g at 4° C. (33.500 rpm in Ti50.2, precooled). The supernatant was transferred again to a fresh 50 mL falcon tube, the protein concentration was determined by a Bradford assay (BioRad) and samples containing 50 mg of protein per aliquot were prepared. The samples were immediately used for experiments or frozen in liquid nitrogen and stored frozen at −80° C.
(§5) Cell lysate (approximately 50 mg protein per plate) was thawed in a water bath at room temperature and then stored on ice. To the thawed cell lysate 1×DP 0.8% NP40 buffer containing protease inhibitors (1 tablet for 25 mL buffer; EDTA-free protease inhibitor cocktail; Roche Diagnostics 1873580) was added in order to reach a final protein concentration of 10 mg/mL total protein. The diluted cell lysate was stored on ice. Mixed Molt4/Ramos lysate was prepared by combining one volume of Molt4 lysate and two volumes of Ramos lysate (ratio 1:2).
(§6) Plates were sealed and incubated for 3 hours in a cold room on a plate shaker (Heidolph tiramax 1000) at 750 rpm. Afterwards the plate was washed 3 times with 230 μL washing buffer (1×DP 0.4% NP40). The filter plate was placed on top of a collection plate (Greiner bio-one, PP-microplate 96 well V-shape, 65120) and the beads were then eluted with 20 μL of sample buffer (100 mM Tris, pH 7.4, 4% SDS, 0.00025% bromophenol blue, 20% glycerol, 50 mM DTT). […]

JAK3 = target: T2, JAK3 (Homo sapiens, UniProt P52333); assay: Kinobeads assay, JAK3 (competition binding in cell lysate, dot blot detection); conditions: mixed Molt4/Ramos lysate
T2 construct: endogenous in cells; host or cells: Molt4 (ATCC CRL-1582) and Ramos (ATCC CRL-1596) cell lysate; mixed Molt4/Ramos lysate 1:2
T2 sequence (P52333 1-1124): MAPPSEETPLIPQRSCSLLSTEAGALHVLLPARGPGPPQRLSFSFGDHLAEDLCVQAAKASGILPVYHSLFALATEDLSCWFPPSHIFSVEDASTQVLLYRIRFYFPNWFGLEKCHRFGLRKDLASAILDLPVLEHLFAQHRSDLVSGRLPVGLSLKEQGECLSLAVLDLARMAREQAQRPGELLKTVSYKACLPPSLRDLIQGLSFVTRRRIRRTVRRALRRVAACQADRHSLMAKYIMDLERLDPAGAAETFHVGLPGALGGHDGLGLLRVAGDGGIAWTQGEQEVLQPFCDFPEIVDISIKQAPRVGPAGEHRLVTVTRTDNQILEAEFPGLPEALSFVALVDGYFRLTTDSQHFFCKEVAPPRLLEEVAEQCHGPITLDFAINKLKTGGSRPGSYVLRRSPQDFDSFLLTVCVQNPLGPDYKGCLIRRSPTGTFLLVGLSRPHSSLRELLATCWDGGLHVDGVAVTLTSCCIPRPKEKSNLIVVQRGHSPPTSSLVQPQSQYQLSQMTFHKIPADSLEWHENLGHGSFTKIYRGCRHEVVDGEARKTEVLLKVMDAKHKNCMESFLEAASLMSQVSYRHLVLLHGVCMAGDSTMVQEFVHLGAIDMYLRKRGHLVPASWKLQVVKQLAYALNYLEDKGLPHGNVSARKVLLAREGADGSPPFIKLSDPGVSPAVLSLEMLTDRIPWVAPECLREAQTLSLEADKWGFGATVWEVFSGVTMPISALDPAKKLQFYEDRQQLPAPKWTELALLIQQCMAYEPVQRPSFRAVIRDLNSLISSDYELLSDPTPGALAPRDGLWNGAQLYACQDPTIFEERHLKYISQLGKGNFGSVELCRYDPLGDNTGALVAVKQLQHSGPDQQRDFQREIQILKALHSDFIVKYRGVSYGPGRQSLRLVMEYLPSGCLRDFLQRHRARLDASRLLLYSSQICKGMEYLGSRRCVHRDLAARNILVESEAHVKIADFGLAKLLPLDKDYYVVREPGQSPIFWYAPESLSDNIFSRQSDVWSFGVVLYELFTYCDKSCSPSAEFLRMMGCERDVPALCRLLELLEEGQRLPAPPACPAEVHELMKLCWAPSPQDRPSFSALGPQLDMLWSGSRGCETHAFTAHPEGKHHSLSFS
Description: as §1, §2, §3, §4, §5, §6

T1 sequence (O60674 whole entry): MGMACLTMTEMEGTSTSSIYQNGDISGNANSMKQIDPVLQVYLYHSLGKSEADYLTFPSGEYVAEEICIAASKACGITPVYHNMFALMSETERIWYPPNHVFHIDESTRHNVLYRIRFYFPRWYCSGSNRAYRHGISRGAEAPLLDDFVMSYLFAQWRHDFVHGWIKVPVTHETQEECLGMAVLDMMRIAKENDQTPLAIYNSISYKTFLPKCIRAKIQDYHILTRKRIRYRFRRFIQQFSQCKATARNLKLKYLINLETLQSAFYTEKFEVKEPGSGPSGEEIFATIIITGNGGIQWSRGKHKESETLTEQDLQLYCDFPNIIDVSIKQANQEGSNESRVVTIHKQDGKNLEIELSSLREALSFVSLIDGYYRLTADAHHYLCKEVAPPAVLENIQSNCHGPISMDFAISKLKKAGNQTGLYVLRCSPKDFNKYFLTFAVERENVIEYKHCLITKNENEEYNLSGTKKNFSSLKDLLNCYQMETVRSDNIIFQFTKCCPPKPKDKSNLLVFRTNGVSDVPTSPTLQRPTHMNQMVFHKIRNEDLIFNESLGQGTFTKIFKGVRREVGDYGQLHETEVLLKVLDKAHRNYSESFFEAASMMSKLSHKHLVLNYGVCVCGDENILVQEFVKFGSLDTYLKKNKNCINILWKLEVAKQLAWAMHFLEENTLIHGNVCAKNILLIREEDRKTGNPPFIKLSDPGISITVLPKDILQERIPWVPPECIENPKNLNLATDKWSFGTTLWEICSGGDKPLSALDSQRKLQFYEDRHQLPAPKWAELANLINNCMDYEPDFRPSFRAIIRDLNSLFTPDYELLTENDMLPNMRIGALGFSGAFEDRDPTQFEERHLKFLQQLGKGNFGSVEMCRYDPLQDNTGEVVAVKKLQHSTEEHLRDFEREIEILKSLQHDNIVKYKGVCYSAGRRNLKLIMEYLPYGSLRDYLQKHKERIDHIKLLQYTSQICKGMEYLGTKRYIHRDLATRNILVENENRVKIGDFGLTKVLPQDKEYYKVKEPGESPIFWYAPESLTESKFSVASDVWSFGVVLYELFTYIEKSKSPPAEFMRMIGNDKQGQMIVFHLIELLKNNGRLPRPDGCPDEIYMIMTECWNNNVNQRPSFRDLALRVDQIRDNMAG

| Structure (SMILES) | IC50 (JAK2) [µM] | IC50 (JAK3) [µM] |
| --- | --- | --- |
| CSCCN1CCCC(Cn2ncc3cnc(Nc4cnn(C)c4)nc32)C1 (stereo not drawn) [Example 37, N-(1-methyl-1H-pyrazol-4-yl)-1-((1-(2-(methylthio)ethyl)piperidin-3-yl)methyl)-1H-pyrazolo[3,4-d]pyrimidin-6-amine] | > 10 | < 0.1 |
| Cn1cc(Nc2ncc3cnn(CC4CCCN(CC(F)F)C4)c3n2)cn1 (stereo not drawn) [Example 67, 1-((1-(2,2-difluoroethyl)piperidin-3-yl)methyl)-N-(1-methyl-1H-pyrazol-4-yl)-1H-pyrazolo[3,4-d]pyrimidin-6-amine] | 1 to 10 | < 0.1 |
| CC1CCCC(n2ncc3cnc(Nc4cnn(C)c4)nc32)C1 (stereo not drawn) [Example 13, N-(1-methyl-1H-pyrazol-4-yl)-1-(3-methylcyclohexyl)-1H-pyrazolo[3,4-d]pyrimidin-6-amine] | > 10 | 0.1 to 1 |
| CSCCC(=O)N1CCCC(Cn2ncc3cnc(Nc4cnn(CC(F)F)c4)nc32)C1 (stereo not drawn) [Example 56, 1-(3-((6-((1-(2,2-difluoroethyl)-1H-pyrazol-4-yl)amino)-1H-pyrazolo[3,4-d]pyrimidin-1-yl)methyl)piperidin-1-yl)-3-(methylthio)propan-1-one] | > 10 | 0.1 to 1 |
| Cn1cc(Nc2ncc3cnn(CC4CCCN(S(=O)(=O)C5CC5)C4)c3n2)cn1 (stereo not drawn) [Example 33, 1-((1-(cyclopropylsulfonyl)piperidin-3-yl)methyl)-N-(1-methyl-1H-pyrazol-4-yl)-1H-pyrazolo[3,4-d]pyrimidin-6-amine] | 1 to 10 | < 0.1 |
| Cn1cc(Nc2ncc3cnn(CC4CCCCC4)c3n2)cn1 [Example 16, 1-(Cyclohexylmethyl)-N-(1-methyl-M-pyrazol-4-yl)-1H-pyrazolo[3,4-d]pyrimidin-6-amine] | 1 to 10 | < 0.1 |
| Cn1cc(Nc2ncc3cnn(CC4CCCN(CCO)C4)c3n2)cn1 (stereo not drawn) [Example 66, 2-(3-((6-((1-methyl-1H-pyrazol-4-yl)amino)-1H-pyrazolo[3,4-d]pyrimidin-1-yl)methyl)piperidin-1-yl)ethanol] | 1 to 10 | < 0.1 |
| Cn1cc(Nc2ncc3cnn(C4CCCN(C(=O)CC#N)C4)c3n2)cn1 (stereo not drawn) [Example 25, 3-(3-(6-((1-methyl-1H-pyrazol-4-yl)amino)-1H-pyrazolo[3,4-d]pyrimidin-1-yl)piperidin-1-yl)-3-oxopropanenitrile] | > 10 | 0.1 to 1 |
| CS(=O)(=O)N1CCCC(Cn2ncc3cnc(Nc4cnn(CC(F)F)c4)nc32)C1 (stereo not drawn) [Example 4, N-(1-(2,2-difluoroethyl)-1H-pyrazol-4-yl)-1-((1-(methylsulfonyl)piperidin-3-yl)methyl)-1H-pyrazolo[3,4-d]pyrimidin-6-amine] | 1 to 10 | < 0.1 |
| Cn1cc(Nc2ncc3cnn(CCC4CCCN(S(C)(=O)=O)C4)c3n2)cn1 (stereo not drawn) [Example 34, N-(1-methyl-1H-pyrazol-4-yl)-1-(2-(1-(methylsulfonyl)piperidin-3-yl)ethyl)-1H-pyrazolo[3,4-d]pyrimidin-6-amine] | 1 to 10 | 0.1 to 1 |
| Cn1cc(Nc2ncc3cnn(C4CCCCC4)c3n2)cn1 [Example 8, 1-cyclohexyl-N-(1-methyl-1H-pyrazol-4-yl)-1H-pyrazolo[3,4-d]pyrimidin-6-amine] | > 10 | 0.1 to 1 |
| CC1CCC(n2ncc3cnc(Nc4cnn(C)c4)nc32)C1 (mixture of isomers) [Example 15, N-(1-Methyl-1H-pyrazol-4-yl)-1-(3-methylcyclopentyl)-1H-pyrazolo[3,4-d]pyrimidin-6-amine] | 1 to 10 | 0.1 to 1 |

Next, values leading:

| IC50 (JAK2) [µM] | IC50 (JAK3) [µM] | Structure (SMILES) |
| --- | --- | --- |
| 1 to 10 | < 0.1 | CCS(=O)(=O)N1CCCC(Cn2ncc3cnc(Nc4cnn(C)c4)nc32)C1 (stereo not drawn) [Example 31, 1-((1-(ethylsulfonyl)piperidin-3-yl)methyl)-N-(1-methyl-1H-pyrazol-4-yl)-1H-pyrazolo[3,4-d]pyrimidin-6-amine] |
| 1 to 10 | 0.1 to 1 | Cn1cc(Nc2ncc3cnn(CC4CCCN(C(=O)C(F)(F)F)C4)c3n2)cn1 (stereo not drawn) [Example 47, 2,2,2-trifluoro-1-(3-((6-((1-methyl-1H-pyrazol-4-yl)amino)-1H-pyrazolo[3,4-d]pyrimidin-1-yl)methyl)piperidin-1-yl)ethanone] |
| 1 to 10 | < 0.1 | Cn1cc(Nc2ncc3cnn(CC4CCCN(CCS(C)(=O)=O)C4)c3n2)cn1 (stereo not drawn) [Example 46, N-(1-methyl-1H-pyrazol-4-yl)-1-((1-(2-(methylsulfonyl)ethyl)piperidin-3-yl)methyl)-1H-pyrazolo[3,4-d]pyrimidin-6-amine] |
| 1 to 10 | < 0.1 | Cn1cc(Nc2ncc3cnn(CC4CCCN(C(=O)CCS(C)(=O)=O)C4)c3n2)cn1 (stereo not drawn) [Example 23, 1-(3-((6-((1-methyl-1H-pyrazol-4-yl)amino)-1H-pyrazolo[3,4-d]pyrimidin-1-yl)methyl)piperidin-1-yl)-3-(methylsulfonyl)propan-1-one] |
| > 10 | 0.1 to 1 | Cn1cc(Nc2ncc3cnn(CC4CCCN(C(=O)OCCF)C4)c3n2)cn1 (stereo not drawn) [Example 44, 2-fluoroethyl 3-((6-((1-methyl-1H-pyrazol-4-yl)amino)-1H-pyrazolo[3,4-d]pyrimidin-1-yl)methyl)piperidine-1-carboxylate] |
| > 10 | < 0.1 | COCC(=O)N1CCCC(Cn2ncc3cnc(Nc4cnn(C)c4)nc32)C1 (stereo not drawn) [Example 21, 2-methoxy-1-(3-((6-((1-methyl-1H-pyrazol-4-yl)amino)-1H-pyrazolo[3,4-d]pyrimidin-1-yl)methyl)piperidin-1-yl)ethanone] |

Source: patent US20130131043A1, “PYRAZOLE COMPOUNDS AS JAK INHIBITORS” (priority 2010, published 2013)
